Columns and labels:
[1] = Inhibition of HIV 3B integrase infected in human MT4 cells assessed as reduction in viral replication after 5 days by CellTiter-Glo assay; assay type: cell-based; conditions: Human immunodeficiency virus 1, 3B, MT4, 120 h
[2] = Cytotoxicity against human MT4 cells assessed as reduction in cell viability measured after 5 days by CellTiter-Glo assay; assay type: toxicity, cell-based

Row | SMILES | EC50 [1] | CC50 at 120 h [2]
1 | O=C(NCc1ccc(F)c(Cl)c1F)c1cn2c(c(O)c1=O)C(=O)N1CC=CC[C@]13CCOC[C@H]23 | 0.00462 µM | 8.02 µM
2 | C[C@@H]1CO[C@@]23CCOC[C@@H]2n2cc(C(=O)NCc4ccc(F)c(Cl)c4F)c(=O)c(O)c2C(=O)N13 | 0.00182 µM | 7.53 µM
3 | O=C(NCc1ccc(F)c(Cl)c1F)c1cn2c(c(O)c1=O)C(=O)N1CCS[C@]13COCC[C@H]23 | 0.0012 µM | 10.8 µM
4 | COc1c2n(cc(C(=O)NCc3ccc(F)c(Cl)c3F)c1=O)[C@H]1CCC[C@]13OCCN3C2=O | 0.00253 µM | 4.94 µM
5 | C[C@H]1CCO[C@]23CCC[C@H]2n2cc(C(=O)NCc4ccc(F)c(Cl)c4F)c(=O)c(O)c2C(=O)N13 | 0.0118 µM | 17.5 µM
6 | O=C(NCc1c(F)cc(F)cc1F)c1cn2c(c(O)c1=O)C(=O)N1CCCC[C@]13COCC[C@H]23 | 0.00194 µM | 33.6 µM

Reference: ChEMBL document CHEMBL3868637, “Treatment of HIV Infections with HIV Integrase Inhibitors” (ACS Med Chem Lett, 2017)
